In patent publication US20110172147A1, “NEUROPEPTIDE-2 RECEPTOR (Y-2R) AGONISTS” (priority 2009, published 2011):

Tests used:
Assay type in all cases: cell-based
Y5R = biological target: T1, Y5R (Homo sapiens, UniProt Q15761); experiment: CaFlux Assay (FLIPR), Y5R
T1 sequence (Q15761 1-445): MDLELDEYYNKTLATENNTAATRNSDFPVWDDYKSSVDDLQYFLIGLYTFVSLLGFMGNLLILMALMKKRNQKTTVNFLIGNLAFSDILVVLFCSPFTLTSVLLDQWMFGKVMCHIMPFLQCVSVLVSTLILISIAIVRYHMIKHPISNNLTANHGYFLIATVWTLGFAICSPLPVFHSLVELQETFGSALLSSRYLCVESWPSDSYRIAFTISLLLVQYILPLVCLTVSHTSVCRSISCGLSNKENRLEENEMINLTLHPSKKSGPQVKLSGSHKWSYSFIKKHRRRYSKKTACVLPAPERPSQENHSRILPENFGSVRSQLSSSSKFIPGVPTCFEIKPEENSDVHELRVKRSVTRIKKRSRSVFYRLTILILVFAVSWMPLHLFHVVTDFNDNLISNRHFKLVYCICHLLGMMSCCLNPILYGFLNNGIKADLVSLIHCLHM

hNPY2R [1] = biological target: T2, hNPY2R (Homo sapiens, UniProt P49146); experiment: cAMP Agonist Assay, HEK293/hNPY2R; set-up: expressed in transfected cells; host or cells: HEK293/hNPY2R (G418 selection)
T2 sequence (P49146 1-381): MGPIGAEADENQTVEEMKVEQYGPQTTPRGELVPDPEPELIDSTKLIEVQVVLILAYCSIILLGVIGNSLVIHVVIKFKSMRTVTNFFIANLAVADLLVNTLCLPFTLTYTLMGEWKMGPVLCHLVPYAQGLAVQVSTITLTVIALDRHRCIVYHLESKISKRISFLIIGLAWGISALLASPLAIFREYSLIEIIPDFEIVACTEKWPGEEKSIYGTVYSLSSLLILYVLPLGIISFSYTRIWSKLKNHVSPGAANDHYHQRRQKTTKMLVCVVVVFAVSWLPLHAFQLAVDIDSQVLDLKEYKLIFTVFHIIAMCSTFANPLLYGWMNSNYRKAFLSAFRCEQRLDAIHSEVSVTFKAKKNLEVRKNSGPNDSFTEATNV
Method: In this example, the following materials were used: 384-well plate; Tropix cAMP-Screen Kit; cAMP ELISA System (Applied Biosystems, cat. #T1505; CS 20000); Forskolin (Calbiochem cat. # 344270); cells: HEK293/hNPY2R; growth medium: Dulbecco's modified eagle medium (D-MEM, Gibco); 10% Fetal bovine serum (FBS, Gibco), heat-inactivated; 1% Penicillin/Streptomycin (Pen 10000 unit/mL: Strep […], Gibco); […] G418 (Geneticin, Gibco cat. # 11811-031); and plating medium: DMEM/F12 w/o phenol red (Gibco); 10% FBS (Gibco, cat. # 10082-147), heat-inactivated; 1% Penicillin/Streptomycin (Gibco, cat. # 15140-122); […] G418 (Geneticin, Gibco, cat. # 11811-031).
On the first day, medium was discarded, and the monolayer cells were washed with 10 mL PBS per flask (T225). After decanting with PBS, 5 mL VERSENE (Gibco, cat #1504006) was used to dislodge the cells (5 min @37 C). The flask was gently tapped and the cell suspension was pooled. Each flask was rinsed with 10 mL plating medium and centrifuged at 1000 rpm for 5 min. The suspension was pooled and counted. The suspension was resuspended in plating medium at a density of 2.0×10^5 cells/mL for HEK293/hNPY2R. 50 microliters of cells (HEK293/hNPY2R-10,000 cells/well) were transferred into the 384-well plate using Multi-drop dispenser. The plates were incubated at 37° C. overnight. On the second day, the cells were checked for 75-85% confluence. The media and reagents were allowed to come to room temperature. Before the dilutions were prepared, the stock solution of stimulating compound in dimethyl sulphoxide (DMSO, Sigma, cat #D2650) was allowed to warm up to 32 C for 5-10 min. The dilutions were prepared in DMEM/F12 with 0.5 mM 3-Isobutyl-1-methylxanthine (IBMX, Calbiochem, cat #410957) and 0.5 mg/mL BSA. The final DMSO concentration in the stimulation medium was 1.1% with Forskolin concentration of 5 μM. The cell medium was tapped off with a gentle inversion of the cell plate on a paper towel. 50 μL of stimulation medium was placed per well (each concentration done in four replicates). The plates were incubated at room temperature for 30 min, and the cells were checked under a microscope for toxicity. After 30 minutes of treatment, the stimulation media was discarded and […] of Assay Lysis Buffer (provided in the Tropix kit) was added. The plates were incubated for 45 min @ 37° C. 20 μL of the lysate was transferred from stimulation plates into the pre-coated antibody plates (384-well) from the Tropix kit. 10 μL of AP conjugate and 20 μL of anti-cAMP antibody was added. The plates were incubated at room temperature while shaking for 1 hour. The plates were then washed 5 times with Wash Buffer, 70 μL per well for each wash. The plates were tapped to dry. 30 μL/well of CSPD/Saphire-II RTU substrate/enhancer solution was added and incubated for 45 min @ RT (shake). Signal for 1 sec/well in a Luminometer. (VICTOR-V) was measured.

hNPY2R [2] = biological target: T2, hNPY2R; experiment: CaFlux Assay (FLIPR), Y2R; set-up: expressed in transfected cells; host or cells: HEK-293 stably transfected with G protein chimera Gαqi9
Method: HEK-293 cells were stably transfected with the G protein chimera Gαqi9 and the hygromycin-B resistance gene were further transfected with the human NPY2 receptor and G418 antibiotic selection. Following selection in both hygromycin-B and G418, individual clones were assayed for their response to PYY. The transfected cells were cultured in DMEM medium supplemented with 10% fetal bovine serum, 50 μg/mL hygromycin-B, 2 mM glutamine, 100 U/mL penicillin, 100 μg/mL streptomycin and 250 μg/mL G418. Cells are harvested with trypsin-EDTA and counted using ViaCount reagent. The cell suspension volume is adjusted to 4.8×10^5 cells/mL with complete growth media. Aliquots of 25 μL are dispensed into 384 well Poly-D Lysine coated black/clear microplates (Falcon) and the microplates were placed in a 37° C. CO2 incubator overnight. Loading Buffer (Calcium-3 Assay Kit, Molecular Devices) was prepared by dissolving the contents of one vial (Express Kit) into […] Hank's Balanced Salt Solution containing 20 mM HEPES and 5 mM probenecid. Aliquots of 25 μL of diluted dye were dispensed into the cell plates and the plates are then incubated for 1 hour at 37° C. During the incubation, test compounds were prepared at 3.5× the desired concentration in HBSS (20 mM HEPES)/0.05% BSA/1% DMSO and transferred to a 384-well plate for use on FLIPR. After incubation, both the cell and compound plates were brought to the FLIPR and 20 μL of the diluted compounds were transferred to the cell plates by the FLIPR. During the assay, fluorescence readings were taken simultaneously from all 384 wells of the cell plate every 1.5 seconds. Five readings were taken to establish a stable baseline, and then 20 μL of sample was rapidly (30 μL/sec) and simultaneously added to each well of the cell plate. The fluorescence was continuously monitored before, during and after sample addition for a total elapsed time of 100 seconds. Responses (increase in peak fluorescence) in each well following addition were determined. The initial fluorescence reading from each well, prior to ligand stimulation, was used as a zero baseline value for the data from that well. The responses are expressed as % of maximal response of the positive control.

Y1R = biological target: T3, Y1R (Homo sapiens, UniProt P25929); experiment: CaFlux Assay (FLIPR), Y1R
T3 sequence (P25929 1-384): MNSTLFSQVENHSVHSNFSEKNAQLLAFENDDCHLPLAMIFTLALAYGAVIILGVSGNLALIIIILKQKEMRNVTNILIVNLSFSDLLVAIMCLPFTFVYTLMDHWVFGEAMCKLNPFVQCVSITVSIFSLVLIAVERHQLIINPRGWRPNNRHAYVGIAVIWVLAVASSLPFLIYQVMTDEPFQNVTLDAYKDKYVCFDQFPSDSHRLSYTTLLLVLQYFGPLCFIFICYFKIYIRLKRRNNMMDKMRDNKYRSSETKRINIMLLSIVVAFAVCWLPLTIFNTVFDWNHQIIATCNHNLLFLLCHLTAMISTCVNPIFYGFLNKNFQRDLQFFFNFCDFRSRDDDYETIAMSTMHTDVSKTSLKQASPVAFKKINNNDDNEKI

Y4R = Y4R (Homo sapiens, UniProt P50391); experiment: CaFlux Assay (FLIPR), Y4R
Sequence of Y4R (P50391 whole entry): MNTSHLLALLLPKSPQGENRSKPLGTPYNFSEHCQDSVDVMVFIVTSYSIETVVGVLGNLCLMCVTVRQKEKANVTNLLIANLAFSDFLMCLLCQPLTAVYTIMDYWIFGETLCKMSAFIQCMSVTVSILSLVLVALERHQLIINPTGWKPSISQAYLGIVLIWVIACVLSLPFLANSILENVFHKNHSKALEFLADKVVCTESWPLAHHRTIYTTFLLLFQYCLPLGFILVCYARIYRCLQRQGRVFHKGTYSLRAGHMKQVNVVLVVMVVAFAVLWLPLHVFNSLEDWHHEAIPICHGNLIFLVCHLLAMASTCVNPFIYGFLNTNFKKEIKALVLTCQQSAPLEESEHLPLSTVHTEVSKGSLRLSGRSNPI

Compound | EC50 (Y5R) [nM] | EC50 (hNPY2R [1]) [nM] | EC50 (hNPY2R [2]) [nM] | EC50 (Y1R) [nM] | EC50 (Y4R) [nM] | Y5R FLIPR agonist character (partial agonist mark) (Y5R; FLIPR)
CCCCCCCCCCCCCCCC(=O)NCCCCCC(=O)NCCCC[C@H](NC(=O)[C@@H](NC(=O)COCCOCCOCCOCCOCCOC)[C@@H](C)CC)C(=O)N1CCN(c2ccc3ncn(CC(=O)N[C@@H](CCCNC(=N)N)C(=O)N[C@@H](Cc4c[nH]cn4)C(=O)N[C@@H](Cc4ccc(O)cc4)C(=O)N[C@@H](CC(C)C)C(=O)N[C@@H](CC(N)=O)C(=O)N[C@@H](Cc4c[nH]c5ccccc45)C(=O)N[C@H](C(=O)N[C@H](C(=O)N[C@@H](CCCNC(=N)N)C(=O)N[C@@H](CCC(N)=O)C(=O)N(C)[C@@H](CCCNC(=N)N)C(=O)N[C@@H](Cc4ccc(O)cc4)C(N)=O)[C@@H](C)O)C(C)C)c(=O)c3c2)CC1 [Example 7] | 1130 | 0.16 | 0.044 | > 5000 | > 5000 | 
CCCCCCCCCCCCCCCC(=O)NCCCCCC(=O)NCCCC[C@H](NC(=O)[C@@H](NC(=O)CCOCCOCCOCCOCCOCCOCCOCCOC)[C@@H](C)CC)C(=O)N1CCN(c2ccc3ncn(CC(=O)N[C@@H](CCCNC(=N)N)C(=O)N[C@@H](Cc4c[nH]cn4)C(=O)N[C@@H](Cc4ccc(O)cc4)C(=O)N[C@@H](CC(C)C)C(=O)N[C@@H](CC(N)=O)C(=O)N[C@@H](Cc4c[nH]c5ccccc45)C(=O)N[C@H](C(=O)N[C@H](C(=O)N[C@@H](CCCNC(=N)N)C(=O)N[C@@H](CCC(N)=O)C(=O)N(C)[C@@H](CCCNC(=N)N)C(=O)N[C@@H](Cc4ccc(O)cc4)C(N)=O)[C@@H](C)O)C(C)C)c(=O)c3c2)CC1 [Example 8] | 1760 | 0.17 | 0.033 | > 5000 | > 5000 | 
CCCCCCCCCCCCCCCC(=O)NCCCCCC(=O)NCCCC[C@H](NC(=O)[C@@H](NC(=O)CCOCCOCCOCCOCCOCCOCCOCCOCCOCCOCCOCCOC)[C@@H](C)CC)C(=O)N1CCN(c2ccc3ncn(CC(=O)N[C@@H](CCCNC(=N)N)C(=O)N[C@@H](Cc4c[nH]cn4)C(=O)N[C@@H](Cc4ccc(O)cc4)C(=O)N[C@@H](CC(C)C)C(=O)N[C@@H](CC(N)=O)C(=O)N[C@@H](Cc4c[nH]c5ccccc45)C(=O)N[C@H](C(=O)N[C@H](C(=O)N[C@@H](CCCNC(=N)N)C(=O)N[C@@H](CCC(N)=O)C(=O)N(C)[C@@H](CCCNC(=N)N)C(=O)N[C@@H](Cc4ccc(O)cc4)C(N)=O)[C@@H](C)O)C(C)C)c(=O)c3c2)CC1 [Example 9] | 1030 | 0.08 | 0.025 | > 5000 | > 5000 | 
CCCCCCCCCCCCCCCC(=O)NCCCCCC(=O)NCCCC[C@H](NC(=O)[C@@H](NC(=O)CCOCCOCCOCCOCCOCCOCCOCCOCCOCCOCCOCCOCCOCCOCCOCCOC)[C@@H](C)CC)C(=O)N1CCN(c2ccc3ncn(CC(=O)N[C@@H](CCCNC(=N)N)C(=O)N[C@@H](Cc4c[nH]cn4)C(=O)N[C@@H](Cc4ccc(O)cc4)C(=O)N[C@@H](CC(C)C)C(=O)N[C@@H](CC(N)=O)C(=O)N[C@@H](Cc4c[nH]c5ccccc45)C(=O)N[C@H](C(=O)N[C@H](C(=O)N[C@@H](CCCNC(=N)N)C(=O)N[C@@H](CCC(N)=O)C(=O)N(C)[C@@H](CCCNC(=N)N)C(=O)N[C@@H](Cc4ccc(O)cc4)C(N)=O)[C@@H](C)O)C(C)C)c(=O)c3c2)CC1 [Example 10] | 816 | 0.13 | 0.04 | > 5000 | > 5000 | 
CCCCCCCCCCCCCCCCCCCC(=O)N[C@@H](CCC(=O)N[C@@H](CCC(=O)NCCCC[C@H](NC(=O)[C@@H](NC(=O)CCOCCOCCOCCOCCOCCOCCOCCOCCOCCOCCOCCOC)[C@@H](C)CC)C(=O)N1CCN(c2ccc3ncn(CC(=O)N[C@@H](CCCNC(=N)N)C(=O)N[C@@H](Cc4c[nH]cn4)C(=O)N[C@@H](Cc4ccc(O)cc4)C(=O)N[C@@H](CC(C)C)C(=O)N[C@@H](CC(N)=O)C(=O)N[C@@H](Cc4c[nH]c5ccccc45)C(=O)N[C@H](C(=O)N[C@H](C(=O)N[C@@H](CCCNC(=N)N)C(=O)N[C@@H](CCC(N)=O)C(=O)N(C)[C@@H](CCCNC(=N)N)C(=O)N[C@@H](Cc4ccc(O)cc4)C(N)=O)[C@@H](C)O)C(C)C)c(=O)c3c2)CC1)C(=O)O)C(=O)O [Example 24] |  |  |  |  |  | P.A
